Experimental data published in US20230257376A1, “ROCK INHIBITOR, AND PREPARATION METHOD THEREFOR AND USE THEREOF” (WUHAN LL SCIENCE AND TECHNOLOGY DEVELOPMENT CO., LTD., priority 2020, published 2023).

What was measured:
ROCK2 kinase = target: T1, ROCK2 kinase (Homo sapiens, UniProt O75116); experiment: In vitro evaluation of ROCK2 kinase activity (HTRF KinEASE-STK time-resolved fluorometric assay); format: biochemical; settings: ROCK2 kinase 0.4 ng/μL, ATP 6.739 μM
T1 construct: purchased Invitrogen PV3759
Description: ROCK2 activity screening. ROCK2 activity was detected using a 96-well (Cisbio) time-resolved fluorometric assay. The assay for ROCK2 was performed in the following assay buffer: 5 mM MgCl2 (Sigma), 1 mM DTT (Sigma) and 1× kinase buffer. The kinase buffer was used for dilution. 7.5 μL of ROCK2 kinase (Invitrogen, PV3759) was added to a 96-well microplate to reach a final concentration of 0.4 ng/μL, and then 0.25 μL of test compound (DMSO content: 1% (volume fraction)) was added. The mixture was incubated at room temperature for 0.5 h. To start the reaction, the kinase buffer was used to mix ATP (Aladdin) and the substrate STK-substrate 2-biotin. 7.5 μL of the mixed solution was added to the microplate to reach final concentrations of 6.739 μM and 1 μM. The resulting mixture was incubated at room temperature for 2 h. 5 mL of detection buffer was mixed with STK antibody-Cryptate, and then an appropriate volume of the mixture was mixed with an equal volume of streptavidin-XL665. 10 μL of the resulting mixture was added to the microplate to stop the reaction. After further incubation for about 1 h, the microplate was read on a Molecular Devices SpectraMax i3x multifunctional microplate reader. The kinase buffer, the STK-substrate 2-biotin, the detection buffer, the STK antibody-Cryptate, and the streptavidin-XL665 were all from HTRF KinEASE-STK kit (Cisbio, 1000 tests, 61GSTXLA).

ROCK1 kinase = target: T2, ROCK1 kinase (Homo sapiens, UniProt Q13464); experiment: In vitro evaluation of ROCK1 kinase selectivity (HTRF KinEASE-STK time-resolved fluorometric assay); format: biochemical; settings: ROCK1 kinase 0.4 ng/μL, ATP 3.53 μM
T2 construct: purchased Invitrogen
Description: ROCK1 activity was detected using a 96-well (Cisbio) time-resolved fluorometric assay. The assay for ROCK1 was performed in the following assay buffer: 5 mM MgCl2 (Sigma), 1 mM DTT (Sigma) and 1× kinase buffer. The kinase buffer was used for dilution. 7.5 μL of ROCK1 kinase (Invitrogen) was added to a 96-well microplate to reach a final concentration of 0.4 ng/μL, and then 0.25 μL of test compound (DMSO content: 1%) was added. The mixture was incubated at room temperature for 0.5 h. To start the reaction, the kinase buffer was also used to mix ATP (Aladdin) and the substrate STK-substrate 2-biotin. 7.5 μL of the mixed solution was added to the microplate to reach final concentrations of 3.53 μM and 1 μM. The resulting mixture was incubated at room temperature for 2 h. 5 mL of detection buffer was mixed with STK antibody-Cryptate, and then an appropriate volume of the mixture was mixed with an equal volume of streptavidin-XL665. 10 μL of the resulting mixture was added to stop the reaction. After further incubation for about 1 h, the microplate was read on a Molecular Devices SpectraMax i3x multifunctional microplate reader. The kinase buffer, the STK-substrate 2-biotin, the detection buffer, the STK antibody-Cryptate, and the streptavidin-XL665 were all from HTRF KinEASE-STK kit (Cisbio, 1000 tests, 61GSTXLA).

T1 sequence (O75116 whole entry): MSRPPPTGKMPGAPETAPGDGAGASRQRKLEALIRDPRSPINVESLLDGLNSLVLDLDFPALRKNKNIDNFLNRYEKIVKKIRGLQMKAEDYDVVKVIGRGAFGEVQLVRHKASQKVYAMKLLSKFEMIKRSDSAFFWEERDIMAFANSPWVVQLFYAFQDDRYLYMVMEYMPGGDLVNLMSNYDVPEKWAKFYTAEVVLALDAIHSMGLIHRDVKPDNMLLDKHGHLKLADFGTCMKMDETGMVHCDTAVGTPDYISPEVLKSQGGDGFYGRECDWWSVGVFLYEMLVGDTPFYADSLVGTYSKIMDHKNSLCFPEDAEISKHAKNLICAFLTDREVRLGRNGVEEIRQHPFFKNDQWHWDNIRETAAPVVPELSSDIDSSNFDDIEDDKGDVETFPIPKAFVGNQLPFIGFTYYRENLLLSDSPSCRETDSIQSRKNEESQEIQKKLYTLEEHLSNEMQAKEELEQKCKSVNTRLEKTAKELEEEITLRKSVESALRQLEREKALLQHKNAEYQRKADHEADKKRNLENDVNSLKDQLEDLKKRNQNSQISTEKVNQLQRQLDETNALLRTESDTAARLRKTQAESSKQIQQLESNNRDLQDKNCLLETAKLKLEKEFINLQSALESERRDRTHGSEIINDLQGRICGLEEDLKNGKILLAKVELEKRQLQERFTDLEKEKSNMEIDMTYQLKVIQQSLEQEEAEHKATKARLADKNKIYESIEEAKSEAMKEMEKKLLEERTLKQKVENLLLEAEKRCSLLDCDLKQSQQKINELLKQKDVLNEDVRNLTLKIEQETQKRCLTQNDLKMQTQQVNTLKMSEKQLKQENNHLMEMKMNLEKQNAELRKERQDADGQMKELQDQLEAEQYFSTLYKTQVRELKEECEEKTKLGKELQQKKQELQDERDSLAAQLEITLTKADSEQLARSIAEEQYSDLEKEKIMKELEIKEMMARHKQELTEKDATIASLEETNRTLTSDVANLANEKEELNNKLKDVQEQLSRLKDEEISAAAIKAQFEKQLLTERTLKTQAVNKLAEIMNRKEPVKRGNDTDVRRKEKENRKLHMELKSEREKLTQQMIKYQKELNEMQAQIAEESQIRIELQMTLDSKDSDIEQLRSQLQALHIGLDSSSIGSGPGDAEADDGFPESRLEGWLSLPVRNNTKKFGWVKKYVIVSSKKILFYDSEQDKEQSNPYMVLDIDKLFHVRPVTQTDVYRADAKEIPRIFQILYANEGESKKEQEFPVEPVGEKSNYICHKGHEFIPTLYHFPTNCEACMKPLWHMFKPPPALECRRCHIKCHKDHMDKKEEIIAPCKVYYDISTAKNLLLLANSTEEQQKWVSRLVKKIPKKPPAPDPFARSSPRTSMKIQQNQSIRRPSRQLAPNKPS
T2 sequence (Q13464 whole entry): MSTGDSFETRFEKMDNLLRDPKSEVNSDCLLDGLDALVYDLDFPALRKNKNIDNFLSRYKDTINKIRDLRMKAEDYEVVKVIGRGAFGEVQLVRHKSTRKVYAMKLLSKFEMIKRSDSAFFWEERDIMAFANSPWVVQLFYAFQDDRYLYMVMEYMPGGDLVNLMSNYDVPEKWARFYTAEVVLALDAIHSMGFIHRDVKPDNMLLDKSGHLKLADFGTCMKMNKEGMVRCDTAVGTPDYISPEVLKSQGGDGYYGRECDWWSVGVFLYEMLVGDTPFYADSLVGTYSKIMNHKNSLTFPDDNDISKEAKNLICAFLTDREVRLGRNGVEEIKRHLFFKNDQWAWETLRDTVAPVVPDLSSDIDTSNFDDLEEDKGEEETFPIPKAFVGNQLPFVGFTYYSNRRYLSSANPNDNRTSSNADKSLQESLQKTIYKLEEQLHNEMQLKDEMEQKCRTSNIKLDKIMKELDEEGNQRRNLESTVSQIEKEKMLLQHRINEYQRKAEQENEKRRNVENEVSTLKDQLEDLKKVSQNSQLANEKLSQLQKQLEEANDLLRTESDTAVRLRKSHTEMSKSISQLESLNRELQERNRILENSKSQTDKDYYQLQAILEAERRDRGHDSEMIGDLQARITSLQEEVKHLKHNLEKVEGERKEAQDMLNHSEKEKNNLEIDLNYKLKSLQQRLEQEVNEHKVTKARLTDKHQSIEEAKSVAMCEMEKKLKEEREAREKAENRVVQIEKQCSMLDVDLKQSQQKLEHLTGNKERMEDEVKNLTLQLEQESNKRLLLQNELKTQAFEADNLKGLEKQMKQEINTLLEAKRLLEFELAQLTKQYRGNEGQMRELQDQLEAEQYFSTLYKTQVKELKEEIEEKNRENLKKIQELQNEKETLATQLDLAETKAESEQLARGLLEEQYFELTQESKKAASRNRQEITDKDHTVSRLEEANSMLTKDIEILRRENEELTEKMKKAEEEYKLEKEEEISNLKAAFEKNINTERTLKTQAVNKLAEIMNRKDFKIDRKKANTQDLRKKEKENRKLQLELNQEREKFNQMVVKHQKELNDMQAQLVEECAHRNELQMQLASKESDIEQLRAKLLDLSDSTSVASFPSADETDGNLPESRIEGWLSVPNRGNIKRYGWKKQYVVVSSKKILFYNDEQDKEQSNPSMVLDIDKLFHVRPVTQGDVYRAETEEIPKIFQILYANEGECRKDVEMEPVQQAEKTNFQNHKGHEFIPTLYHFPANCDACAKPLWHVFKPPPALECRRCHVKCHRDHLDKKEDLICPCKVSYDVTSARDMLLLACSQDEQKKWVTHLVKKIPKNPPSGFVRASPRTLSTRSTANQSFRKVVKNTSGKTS

IC50 (ROCK2 kinase) [nM] | IC50 (ROCK1 kinase) [µM] | SMILES
500 to 4500 | > 4.5 | O=C(c1ccc2c(c1)CCN(c1nccc(Nc3ccc(-c4cn[nH]c4)cc3)n1)C2)N1CC(F)(F)C1 [Compound L029]
> 4500 | > 4.5 | Cn1c(C(=O)N2CC(F)(F)C2)cc2c1CN(c1nnc(Nc3ccc(-c4cn[nH]c4)cc3)o1)CC2 [Compound L046, (6-(5-((4-(1H-pyrazol-4-yl)phenyl)amino)-1,3,4-oxadiazol-2-yl)-1-methyl-4,5,6,7-tetrahydro-1H-pyrrolo[2,3-c]pyridin-2-yl)(3,3-difluoroazetidin-1-yl)methanone]
500 to 4500 | – | O=C(c1ccc2nn(-c3nccc(Nc4ccc(-c5cn[nH]c5)cc4)n3)cc2c1)N1CC(F)(F)C1 [Compound L011, (2-(4-((4-(1H-pyrazol-4-yl)phenyl)amino)pyrimidin-2-yl)-2H-indazol-5-yl)(3,3-difluoroazetidin-1-yl)methanone]
500 to 4500 | – | CN(C(=O)c1cn2c(n1)CN(c1nccc(Nc3ccc(-c4cn[nH]c4)cc3)n1)CC2)C1CC(F)(F)C1 [Compound L022]
50 to 500 | > 4.5 | Cn1c(C(=O)N2CC(F)(F)C2)cc2c1CN(c1ncc(C(F)(F)F)c(Nc3ccc(-c4cn[nH]c4)cc3)n1)CC2 [Compound L035, (6-(4-((4-(1H-pyrazol-4-yl)phenyl)amino)-5-(trifluoromethyl)pyrimidin-2-yl)-1-methyl-4,5,6,7-tetrahydro-1H-pyrrolo[2,3-c]pyridin-2-yl)(3,3-difluoroazetidin-1-yl)methanone]
50 to 500 | > 4.5 | O=C(c1cn2c(n1)CN(c1nccc(Nc3ccc(-c4cn[nH]c4)cc3)n1)CC2)N1CC(F)(F)C1 [Compound L015]
50 to 500 | > 4.5 | Cn1c(C(=O)N2CC(F)(F)C2)cc2c1CN(c1ncc(Cl)c(Nc3ccc(-c4c[nH]nc4F)cc3)n1)CC2 [Compound L038, (6-(5-chloro-4-((4-(3-fluoro-1H-pyrazol-4-yl)phenyl)amino)pyrimidin-2-yl)-1-methyl-4,5,6,7-tetrahydro-1H-pyrrolo[2,3-c]pyridin-2-yl)(3,3-difluoroazetidin-1-yl)methanone]
50 to 500 | > 4.5 | Cn1c(C(=O)NC2CCN(c3ccncc3Cl)CC2)cc2c1CN(c1nccc(Nc3ccc(-c4cn[nH]c4)cc3)n1)CC2 [Compound L021]
50 to 500 | > 4.5 | Cn1c(C(=O)N2CC(F)(F)C2)cc2c1CN(c1nc(Nc3ccc(-c4cn[nH]c4)cc3)cc(C(F)(F)F)n1)CC2 [Compound L041, (6-(4-((4-(1H-pyrazol-4-yl)phenyl)amino)-6-(trifluoromethyl)pyrimidin-2-yl)-1-methyl-4,5,6,7-tetrahydro-1H-pyrrolo[2,3-c]pyridin-2-yl)(3,3-difluoroazetidin-1-yl)methanone]
50 to 500 | > 4.5 | CC(C)c1nc(Nc2ccc(-c3cn[nH]c3)cc2)nc(N2CCc3cc(C(=O)N4CC(F)(F)C4)n(C)c3C2)n1 [Compound L049]
≤ 50 | > 4.5 | O=C(NC1CC(F)(F)C1)c1cn2c(n1)CN(c1nccc(Nc3ccc(-c4cn[nH]c4)cc3)n1)CC2 [Compound L008, 7-(4-((4-(1H-pyrazol-4-yl)phenyl)amino)pyrimidin-2-yl)-N-(3,3-difluorocyclobutyl)-5,6,7,8-tetrahydroimidazo[1,2-a]pyrazine-2-carboxamide]
50 to 500 | > 4.5 | Cn1c(C(=O)N2CC(F)(F)C2)cc2c1CN(c1nc(Nc3ccc(-c4cn[nH]c4)cc3)nc(C3COC3)n1)CC2 [Compound L052, (6-(4-((4-(1H-pyrazol-4-yl)phenyl)amino)-6-(oxetan-3-yl)-1,3,5-triazin-2-yl)-1-methyl-4,5,6,7-tetrahydro-1H-pyrrolo[2,3-c]pyridin-2-yl)(3,3-difluoroazetidin-1-yl)methanone]
500 to 4500 | – | Cn1c(C(=O)N2CC(F)(F)C2)cc2c1CN(c1nccc(Nc3ccc(Oc4ncccc4C(N)=O)c(F)c3)n1)CC2 [Compound L007, 2-(4-((2-(2-(3,3-difluoroazetidin-1-carbonyl)-1-methyl-1,4,5,7-tetrahydro-6H-pyrrolo[2,3-c]pyridin-6-yl)pyrimidin-4-yl)amino)-2-fluorophenoxy)nicotinamide]
> 4500 | – | O=C(O)c1cn2c(n1)CN(c1nccc(Nc3ccc(-c4cn[nH]c4)cc3)n1)CC2 [Compound L002, 7-(4-((4-(1H-pyrazol-4-yl)phenyl)amino)pyrimidin-2-yl)-5,6,7,8-tetrahydroimidazo[1,2-a]pyrazine-2-carboxylic Acid]
50 to 500 | 0.5 to 4.5 | Cn1c(C(=O)Nc2cnccc2F)cc2c1CN(c1nccc(Nc3ccc(-c4cn[nH]c4)cc3)n1)CC2 [Compound L023]
50 to 500 | > 4.5 | Cn1c(C(=O)N2CC(C(F)F)C2)cc2c1CN(c1ncc(F)c(Nc3ccc(-c4c[nH]nc4F)cc3)n1)CC2 [Compound L039, (3-(difluoromethyl)azetidin-1-yl)(6-(5-fluoro-4-((4-(3-fluoro-1H-pyrazol-4-yl)phenyl)amino)pyrimidin-2-yl)-1-methyl-4,5,6,7-tetrahydro-1H-pyrrolo[2,3-c]pyridin-2-yl)methanone]
50 to 500 | 0.5 to 4.5 | Cn1c(C(=O)NC2CC(F)(F)C2)cc2c1CN(c1nccc(Nc3ccc(-c4cn[nH]c4)cc3)n1)CC2 [Compound L004, 6-(4-((4-(1H-pyrazol-4-yl)phenyl)amino)pyrimidin-2-yl)-N-(3,3-difluorocyclobutyl)-1-methyl-4,5,6,7-tetrahydro-1H-pyrrolo[2,3-c]pyridine-2-carboxamide]
50 to 500 | > 4.5 | Cn1c(C(=O)N2CC(F)(F)C2)cc2c1CN(c1nccc(Nc3ccc(-c4cn[nH]c4)cc3)n1)CC2(C)C [Compound L020, (6-(4-((4-(1H-pyrazol-4-yl)phenyl)amino)pyrimidin-2-yl)-1,4,4-trimethyl-4,5,6,7-tetrahydro-1H-pyrrolo[2,3-c]pyridin-2-yl)(3,3-difluoroazetidin-1-yl)methanone]
> 4500 | – | O=C(O)c1cc2n(c1)CCN(c1nccc(Nc3ccc(-c4cn[nH]c4)cc3)n1)C2 [Compound L013, 2-(4-((4-(1H-pyrazol-4-yl)phenyl)amino)pyrimidin-2-yl)-1,2,3,4-tetrahydropyrrolo[1,2-a]pyrazine-7-carboxylic Acid]
> 4500 | – | Cn1c(C(=O)O)cc2c1CN(c1nccc(Nc3ccc(-c4cn[nH]c4)cc3)n1)CC2 [Compound L001, 6-(4-((4-(1H-pyrazol-4-yl)phenyl)amino)pyrimidin-2-yl)-1-methyl-4,5,6,7-tetrahydro-1H-pyrrolo[2,3-c]pyridine-2-carboxylic Acid]
> 4500 | – | CN(C(=O)c1cc2c(n1C)CN(c1nccc(Nc3ccc(-c4cn[nH]c4)cc3)n1)CC2)C1CC(F)(F)C1 [Compound L014, 6-(4-((4-(1H-pyrazol-4-yl)phenyl)amino)pyrimidin-2-yl)-N-(3,3-difluorocyclobutyl)-N,1-dimethyl-4,5,6,7-tetrahydro-1H-pyrrolo[2,3-c]pyridine-2-carboxamide]
500 to 4500 | – | CC(C)NC(=O)c1cc2c(n1C)CN(c1nccc(Nc3ccc(-c4cn[nH]c4)cc3)n1)CC2 [Compound L009, 6-(4-((4-(1H-pyrazol-4-yl)phenyl)amino)pyrimidin-2-yl)-N-isopropyl-1-methyl-4,5,6,7-tetrahydro-1H-pyrrolo[2,3-c]pyridine-2-carboxamide]
> 4500 | – | O=C(c1cc2n(c1)CCN(c1nccc(Nc3ccc(-c4cn[nH]c4)cc3)n1)C2)N1CC(F)(F)C1 [Compound L025, (2-(4-((4-(1H-pyrazol-4-yl)phenyl)amino)pyrimidin-2-yl)-1,2,3,4-tetrahydropyrrolo[1,2-a]pyrazin-7-yl)(3,3-difluoroazetidin-1-yl)methanone]
> 4500 | – | O=C(c1cc2n(n1)CCN(c1nccc(Nc3ccc(-c4cn[nH]c4)cc3)n1)C2)N1CC(F)(F)C1 [Compound L003, (5-(4-((4-(1H-pyrazol-4-yl)phenyl)amino)pyrimidin-2-yl)-4,5,6,7-tetrahydropyrazolo[1,5-a]pyrazin-2-yl)(3,3-difluoroazetidin-1-yl)methanone]
